Experimental findings from the OPERA property sets (Mansouri et al. 2018) are described below.

Structures are written as SMILES.

As a reminder, the logP is a log measure of how a compound divides between an organic and an aqueous phase. Higher therefore signals higher lipophilicity.

As to `CN(C)c1cnc(Cl)cn1`, the logP came to 1.7.

Compound `CN(C)c1cncc(C#N)n1` had a logP of 1.12. In turn, `Cc1nccnc1C` had a logP of 0.54. With `Cc1nc(C#N)c(C#N)nc1Cl` the figure was 1.29. Compound `COc1cnc(OC)cn1` had a logP of 1.14. Turning to `Cc1cnc(C(N)=O)cn1`, the logP is -0.25. With `COC(=O)c1cncc(C)n1` the figure was 0.1. For `Cc1nccnc1OC(C)C`, the logP was 2.24. Compound `Cc1cncc(C)n1` registered a logP of 0.54. In turn, `COC(=O)c1cnc(C)cn1` gave a logP of 0.17. For `Nc1cncc(N)n1`, the logP is -0.45. With `Cc1cncc(C(N)=O)n1`, the logP is -0.13. Regarding `Cc1cncc(N)n1`, the logP is 0.35. The result for `COc1cnc(N(C)C)cn1` reads 1.65; that for `CCc1ncc(C)nc1CC`, 1.95; that for `CCOc1cncc(C(N)=O)n1`, 0.61. Take `COc1cncc(C#N)n1`: the logP stood at 0.95.

Compound `COc1ccnc(C#N)n1` registered a logP of 0.86. With `CSc1nccnc1C` the figure was 1.81. In turn, `CCOc1cnc(Cl)cn1` returned a logP of 1.99. As to `COC(=O)c1cncc(OC)n1`, the log partition coefficient (logP) is 0.69. As for `CCCc1nccnc1C`, the logP worked out at 1.57. On to `CCOc1cncc(OC)n1`, for which the logP turned out to be 1.98. For the compound `COc1cncc(C(N)=O)n1`, the logP came to 0.13. Consider `CC(=O)Nc1cncc(C)n1`, for which the logP is 0.38.

`COC(=O)c1ccc(Br)o1`: the logP is 1.84. For `CCOC(=O)c1nccnc1C(=O)OCC`, the logP was determined as 0.65.

The compound `Cc1cnc(Cl)cn1` returned a lipophilicity (logP) of 1.08. In turn, `N#Cc1nccnc1C#N` returned a logP of 0.38. `COc1cnc(Cl)cn1` showed a logP of 1.52. As for `CCc1nccnc1CC`, the logP turned out to be 1.51.

`Cc1nc(C)c(C)nc1C` displayed a logP of 1.28.

Regarding `CCCCc1nc(C#N)c(C#N)nc1Cl`, the logP was determined as 2.89. Consider `COc1cncc(NC(C)=O)n1`, for which the logP is 0.82.

On to `CCOC(=O)c1cncc(OC)n1`, for which the logP was found to be 1.2.

`CCc1nccnc1C` yielded a logP of 1.07. `CCCCc1nccnc1C` returned a logP of 2.1. With `COC(=O)c1cncc(N(C)C)n1` the figure was 0.9.

`COC(=O)c1nccnc1C(=O)OC` gave a logP of -0.02.

With `COc1nccnc1C`, the logP is 1.24. Regarding `CC(=O)Nc1cnc(Cl)cn1`, the logP was 0.56.

`COc1cncc(C)n1`: the log partition coefficient (logP) was 1.29. `Clc1cnc(Cl)cn1` came in with a logP of 1.58. For the compound `COc1cncc(OC)n1`, the logP turned out to be 1.58.

As for `COc1cnc(N)cn1`, the lipophilicity (logP) amounted to 0.63. `CCOC(=O)c1cncc(C)n1`: the logP was determined as 0.51. Consider `CCc1nc(C#N)c(C#N)nc1Cl`, for which the logP came to 1.79. The result for `CCOc1cncc(OCC)n1` reads 2.55. As to `Cc1cnc(C)c(C)n1`, the logP turned out to be 0.95. `Cc1cncc(C#N)n1`: the log partition coefficient (logP) worked out at 0.44. The result for `Cc1cncc(N(C)C)n1` reads 1.57. In the case of `COc1cncc(N(C)C)n1`, the logP was found to be 1.99. For `CCOC(=O)c1cnc(C)cn1`, the logP is 0.61.

For `Cc1cnc(C)c(Cl)n1`, the logP turned out to be 1.5. With `CCOC(=O)c1cncc(N(C)C)n1` the figure was 1.24; with `COc1cncc(N)n1`, 0.73.

In the case of `Cc1cnc(C#N)cn1`, the logP turned out to be 0.26. With `CN(C)c1cncc(C(N)=O)n1` the figure was 0.38.
